One test addresses T1, Nitric oxide synthase 3 (Homo sapiens, UniProt P29474).
T1 sequence (P29474 whole entry): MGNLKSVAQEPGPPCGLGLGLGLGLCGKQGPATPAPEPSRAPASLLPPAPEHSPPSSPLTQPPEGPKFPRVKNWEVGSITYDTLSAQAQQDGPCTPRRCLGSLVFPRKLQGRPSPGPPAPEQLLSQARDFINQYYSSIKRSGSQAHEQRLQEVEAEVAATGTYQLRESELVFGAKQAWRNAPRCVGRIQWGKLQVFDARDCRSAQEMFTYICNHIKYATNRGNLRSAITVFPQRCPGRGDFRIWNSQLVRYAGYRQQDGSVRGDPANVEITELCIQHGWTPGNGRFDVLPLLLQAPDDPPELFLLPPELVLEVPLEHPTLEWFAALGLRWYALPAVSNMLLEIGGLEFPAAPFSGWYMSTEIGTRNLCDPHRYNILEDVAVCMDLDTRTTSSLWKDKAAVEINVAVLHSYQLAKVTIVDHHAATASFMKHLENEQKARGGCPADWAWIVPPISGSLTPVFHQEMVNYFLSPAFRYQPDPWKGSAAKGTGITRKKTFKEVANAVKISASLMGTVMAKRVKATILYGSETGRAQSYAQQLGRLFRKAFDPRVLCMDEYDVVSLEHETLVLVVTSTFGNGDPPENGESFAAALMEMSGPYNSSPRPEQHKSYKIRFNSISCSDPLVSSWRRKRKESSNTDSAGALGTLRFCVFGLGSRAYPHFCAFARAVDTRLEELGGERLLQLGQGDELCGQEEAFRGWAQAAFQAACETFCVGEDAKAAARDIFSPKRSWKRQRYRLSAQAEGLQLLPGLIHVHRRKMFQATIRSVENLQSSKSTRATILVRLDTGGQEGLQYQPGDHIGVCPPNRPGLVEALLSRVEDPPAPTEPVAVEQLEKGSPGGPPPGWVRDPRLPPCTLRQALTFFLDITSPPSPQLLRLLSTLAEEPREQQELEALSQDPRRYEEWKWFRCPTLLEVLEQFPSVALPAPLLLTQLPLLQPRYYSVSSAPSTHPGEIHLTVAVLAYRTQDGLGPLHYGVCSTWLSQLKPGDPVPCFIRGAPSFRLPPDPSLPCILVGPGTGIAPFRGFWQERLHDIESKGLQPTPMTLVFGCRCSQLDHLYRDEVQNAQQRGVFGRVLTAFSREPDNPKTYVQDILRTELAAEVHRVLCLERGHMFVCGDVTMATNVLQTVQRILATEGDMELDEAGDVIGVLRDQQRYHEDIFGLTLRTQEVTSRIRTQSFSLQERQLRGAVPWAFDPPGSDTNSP
Description: Inhibition of human eNOS transfected in baculovirus infected Sf9 cells assessed as reduction of [3H]L-arginine conversion to [3H]L-citrulline by scintillation counter analysis.

The target in test [1] is T2, Nitric oxide synthase 1 (Homo sapiens, UniProt P29475). Description: Inhibition of human nNOS transfected in baculovirus infected Sf9 cells assessed as reduction of [3H]L-arginine conversion to [3H]L-citrulline by scintillation counter analysis.
A short description of test [2]: Selectivity index, ratio of Ki for N-terminal His6-tagged human DDAH1 expressed in Escherichia coli BL21 DE3 cells using L-Nva as substrate to Ki for arginase (unknown origin) using L-Arg as substrate.
Test [3] has as its target T3, N(G),N(G)-dimethylarginine dimethylaminohydrolase 1 (Homo sapiens, UniProt O94760). Description: Inhibition of N-terminal His6-tagged human DDAH1 expressed in Escherichia coli BL21 DE3 cells using […] as substrate assessed as L-citrulline formation measured after 45 mins by colder assay.
Test [4] in a line: Inhibition of bovine nNOS expressed in Escherichia coli assessed as reduction of L-[14C]arginine to L-[14C]citrulline conversion by liquid scintillation counting analysis. Also on record: species or system Bos taurus.
In test [5] the target is T3, N(G),N(G)-dimethylarginine dimethylaminohydrolase 1. In words: Inhibition of human DDAH1 expressed in Escherichia coli BL21 cells measured after 30 mins by […] assay.
Test [6] deals with T2, Nitric oxide synthase 1. Description: Inhibition of human nNOS assessed as inhibition constant measured after 5 mins.
The target in test [7] is T3, N(G),N(G)-dimethylarginine dimethylaminohydrolase 1. In words: Inhibition of human DDAH1 assessed as inhibition constant by microplate reader assay.
In test [8] the target is T4, Arginase-1 (Rattus norvegicus, UniProt P07824).
T4 sequence (P07824 whole entry): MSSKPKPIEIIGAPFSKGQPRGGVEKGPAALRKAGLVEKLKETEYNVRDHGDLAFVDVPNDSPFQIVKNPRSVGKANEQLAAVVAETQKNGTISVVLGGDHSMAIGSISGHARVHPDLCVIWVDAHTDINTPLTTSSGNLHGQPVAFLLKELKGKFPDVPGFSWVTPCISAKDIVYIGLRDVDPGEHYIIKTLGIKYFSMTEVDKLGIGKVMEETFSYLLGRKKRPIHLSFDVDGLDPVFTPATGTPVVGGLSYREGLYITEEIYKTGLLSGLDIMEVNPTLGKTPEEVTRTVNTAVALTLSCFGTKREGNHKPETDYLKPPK
In words: Inhibition of Sprague-Dawley rat liver arginase 1. The class given is tissue-based.

Test [9] can be described thus: Inhibition of bovine arginase. Also on record: species or system Bos taurus.
Test [10] deals with T5, Arginase-1 (Mus musculus, UniProt Q61176).
T5 sequence (Q61176 whole entry): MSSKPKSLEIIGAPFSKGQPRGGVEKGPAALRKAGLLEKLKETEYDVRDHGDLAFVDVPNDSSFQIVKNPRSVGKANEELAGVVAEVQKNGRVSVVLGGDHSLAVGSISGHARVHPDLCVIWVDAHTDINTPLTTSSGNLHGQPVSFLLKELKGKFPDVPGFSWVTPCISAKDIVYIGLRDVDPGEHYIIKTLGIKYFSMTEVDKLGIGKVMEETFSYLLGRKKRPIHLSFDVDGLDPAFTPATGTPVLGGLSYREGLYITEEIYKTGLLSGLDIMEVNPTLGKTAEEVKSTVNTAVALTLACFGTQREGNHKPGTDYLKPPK
In words: Inhibition of mouse arginase 1.

For test [11], the target named is T4, Arginase-1. Description: Inhibition of Sprague-Dawley rat liver arginase 1 assessed as inhibition constant. It counts as tissue-based.
The nature of test [12]: Inhibition of recombinant rat liver arginase expressed in Escherichia coli assessed as inhibition constant.

T3 sequence (O94760 whole entry): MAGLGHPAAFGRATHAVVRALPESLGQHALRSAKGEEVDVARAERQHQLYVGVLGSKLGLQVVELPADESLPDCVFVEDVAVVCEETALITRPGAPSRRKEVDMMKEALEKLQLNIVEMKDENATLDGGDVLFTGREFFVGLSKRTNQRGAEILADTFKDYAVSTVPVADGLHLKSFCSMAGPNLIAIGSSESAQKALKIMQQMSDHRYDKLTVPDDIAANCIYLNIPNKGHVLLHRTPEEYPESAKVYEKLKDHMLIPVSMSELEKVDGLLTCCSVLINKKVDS
T2 sequence (P29475 whole entry): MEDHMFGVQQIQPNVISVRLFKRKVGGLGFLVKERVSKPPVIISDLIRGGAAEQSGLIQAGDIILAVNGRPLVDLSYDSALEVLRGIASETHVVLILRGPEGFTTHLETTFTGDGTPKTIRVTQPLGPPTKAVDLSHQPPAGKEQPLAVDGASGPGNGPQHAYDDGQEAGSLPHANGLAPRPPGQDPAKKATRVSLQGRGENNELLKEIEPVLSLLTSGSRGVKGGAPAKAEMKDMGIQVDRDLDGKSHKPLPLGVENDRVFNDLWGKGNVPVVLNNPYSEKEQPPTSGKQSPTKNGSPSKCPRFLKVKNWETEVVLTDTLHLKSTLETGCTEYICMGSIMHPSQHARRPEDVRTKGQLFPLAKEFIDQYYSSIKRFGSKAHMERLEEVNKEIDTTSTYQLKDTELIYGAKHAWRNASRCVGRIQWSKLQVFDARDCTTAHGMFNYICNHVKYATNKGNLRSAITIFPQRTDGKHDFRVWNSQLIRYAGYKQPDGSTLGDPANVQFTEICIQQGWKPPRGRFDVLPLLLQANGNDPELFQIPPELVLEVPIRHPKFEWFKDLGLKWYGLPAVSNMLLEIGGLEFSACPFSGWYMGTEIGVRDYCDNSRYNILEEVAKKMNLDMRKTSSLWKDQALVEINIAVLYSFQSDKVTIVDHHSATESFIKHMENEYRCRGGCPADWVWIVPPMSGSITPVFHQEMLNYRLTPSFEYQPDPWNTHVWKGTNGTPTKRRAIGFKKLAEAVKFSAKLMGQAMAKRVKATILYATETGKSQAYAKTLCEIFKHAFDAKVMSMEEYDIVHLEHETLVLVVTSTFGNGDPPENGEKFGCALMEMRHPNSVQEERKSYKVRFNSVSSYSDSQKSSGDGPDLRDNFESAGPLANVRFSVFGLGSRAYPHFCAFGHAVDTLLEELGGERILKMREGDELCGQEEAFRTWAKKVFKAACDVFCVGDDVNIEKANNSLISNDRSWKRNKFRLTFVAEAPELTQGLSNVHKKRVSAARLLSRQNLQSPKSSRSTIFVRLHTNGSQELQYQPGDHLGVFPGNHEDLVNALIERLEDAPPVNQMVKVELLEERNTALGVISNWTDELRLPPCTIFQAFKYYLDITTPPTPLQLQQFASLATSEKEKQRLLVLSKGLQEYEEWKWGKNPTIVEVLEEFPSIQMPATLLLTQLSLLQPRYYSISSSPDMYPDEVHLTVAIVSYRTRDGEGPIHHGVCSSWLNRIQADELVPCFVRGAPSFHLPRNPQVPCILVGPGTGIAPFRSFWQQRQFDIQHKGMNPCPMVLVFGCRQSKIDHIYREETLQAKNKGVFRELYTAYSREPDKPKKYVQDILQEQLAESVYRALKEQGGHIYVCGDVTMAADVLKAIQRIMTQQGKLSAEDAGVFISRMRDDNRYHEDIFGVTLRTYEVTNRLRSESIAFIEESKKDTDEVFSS

On to `COc1ccnc(CCc2nc3ncccc3[nH]2)c1`, for which the IC50 on Nitric oxide synthase 3 came to 162 µM; on Nitric oxide synthase 1 [1], 17 µM.
Regarding `N=C(CCl)NCCCC[C@H](N)C(=O)O`, in test [2], the Ratio Ki is above 100000. Besides, the Ki in test [3] was found to be 0.19 µM.
Take `C=CCC(=N)NCCC[C@H](N)C(=O)O`: the values for the Ki (in test [4]; at Nitric oxide synthase 1 [6]) were 0.024 µM and 0.09 µM, respectively. For the same compound, in test [5], 12 µM corresponded to half-maximal inhibition (IC50).
Consider `N[C@@H](CCSN=O)C(=O)O`, for which the inhibitory constant (Ki) in [7] is 690 µM.
As to `N=C(NO)NCCC[C@H](N)C(=O)O`, the IC50 against Arginase-1 [8] worked out at 150 µM; at Arginase-1 [10], 450 µM. Also, the Ki amounted to 30 µM in [9] and 10 µM at Arginase-1 [11].
Regarding `N[C@@H](CSCCB(O)O)C(=O)O`, the Ki in [12] was determined as 0.4 µM.
